Article PMC12030497, “Plasma Protein Binding, Biostability, Metabolite Profiling, and CYP450 Phenotype of TPB15 Across Different Species: A Novel Smoothened Inhibitor for TNBC Therapy” (Pharmaceutics, 2025)

Key:
[1] = Metabolic stability in dog liver microsomes (DLM); format: in vitro ADME, beagle dog
Experimental: (§1) A total of 450 μL liver microsomes from mice, rat, dog, monkey, and human were spiked with 0.5 μL of TPB15 solution and pre-incubated in a water bath at 37 °C for 10 min. Following this, 50 μL of NADPH were added to initiate the reaction. The concentrations of each substance in the incubation system are detailed in Table 1. After initiating the metabolic reaction, 50 μL aliquots were removed at incubation times of 0, 5, 15, 30, 45, 60, and 90 min and transferred to 150 μL of icy methanol solution containing the internal standard to terminate the reaction. The mixtures were swirled for 2 min and then centrifuged at 14,800 rpm at 4 °C for 10 min. […] Three samples were prepared in parallel at each time point. Additionally, both a positive control group and a blank control group were established. In the positive control group, substrate testosterone was incubated with liver microsomes from mice, rat, dog, monkey, and human. The concentrations of substrate testosterone were measured at 0 and 90 min, and the changes in concentration before and after incubation were compared to confirm the activity of the liver microsomes. The blank control group included one drug-containing inactivated liver microsome sample for each species. The metabolic stability parameters, including in vitro elimination half-life (T1/2) and in vitro intrinsic clearance rate (CLint), were calculated based on this graph using the following formulas: in vitro elimination half-life (T1/2) = −0.693/k and in vitro intrinsic clearance rate (CLint) = (0.693 × incubation medium (mL))/(liver microsomes (mg) × T1/2).

[2] = Plasma protein binding by ultrafiltration, human plasma; format: in vitro ADME
Experimental: To prepare plasma samples of TPB15 at final concentrations of 4, 8, and 16 μg/mL, 1 μL of TPB15 dissolved in dimethyl sulfoxide (DMSO) at low (400 μg/mL), medium (800 μg/mL), and high (1600 μg/mL) concentrations was added to 99 μL of blank plasma obtained from humans, rats, mice, monkeys, and dogs. Each concentration was prepared in six replicates. The samples were then divided into two groups: one for determining the pre-ultrafiltration concentration (Cpre) and the other for measuring the post-ultrafiltration concentration (Ct), following the evaluation of the non-specific binding coefficient (NSB) of TPB15 to the ultrafiltration tubes. For Cpre determination, 10 μL of the sample was mixed with 990 μL of plasma, vortexed thoroughly, and analyzed for drug concentration using the previously reported liquid chromatography–tandem mass spectrometry (LC-MS/MS) method. For Ct determination, the samples were first incubated in a water bath at 37 °C for 3 h. After incubation, they were transferred to ultrafiltration tubes and centrifuged at 14,000 rpm for 20 min at 4 °C using a centrifuge (Sigma 3K-15) from Sigma Laborzentrifugen GmbH (Osterode am Harz, Germany). After centrifugation, 10 μL of the ultrafiltrate was mixed with 990 μL of plasma, vortexed, and analyzed for concentration using the same LC-MS/MS method. The formula for calculating the plasma protein binding rate (PPB) is as follows: PPB (%) = [1 − Ct/(1 − NSB)/Cpre] × 100%. (NSB: non-specific binding coefficient. […]).

[3] = set-up: method as in PMID 39158678; details: pharmacokinetic studies in rats; cited from earlier work
[4] = test system: CYP450 enzymes in human liver microsomes; test: Metabolic enzyme phenotype of TPB15 in human liver microsomes with selective CYP450 inhibitors; format: in vitro ADME
Experimental: The specific procedure was as follows: a total of 0.5 μL of the substrate TPB15 and 0.5 μL of each specific inhibitor were mixed with 449 μL of human liver microsomes, and the mixture was incubated at 37 °C for 10 min. Subsequently, 50 μL of NADPH with a concentration of 10 mM in PBS were introduced to initiate the reaction. After 90 min, 50 μL of the reaction mixture were transferred to a 150 μL ice-cold methanol solution containing an internal standard to terminate the reaction. The mixture was vortexed for 2 min and then centrifuged at 4 °C at 14,800 rpm for 10 min. A volume of 130 μL of the supernatant was then transferred to a new EP tube, which was centrifuged again at 4 °C at 14,800 rpm for another 10 min. Finally, 5 μL of the supernatant were injected for the determination of substrate TPB15 concentration. Three parallel samples were prepared for each time point. The experiment also included a positive control group and a negative control group. In the positive control group, substrate TPB15 was incubated with human liver microsomes for 90 min without the addition of inhibitors. In the negative control group, the substrate TPB15 was incubated for 90 min without inhibitors, with human liver microsomes replaced by an equal volume of phosphate-buffered saline (PBS). The metabolic rate of TPB15 in human liver microsomes was represented by the elimination rate of the substrate TPB15.

Stability in mice plasma = format: in vitro ADME, KM mice; details: 37 °C, 453 μg/L
Experimental: (§2) A total of 696.5 μL of plasma from each species (healthy mice, rat, dog, monkey, and human) were spiked with 3.5 μL of TPB15 stock solution ([…] in DMSO), resulting in a final TPB15 concentration of 453 μg/L in plasma. The mixture was then aliquoted into three tubes, each with a volume of 200 μL, maintaining a final DMSO concentration of 0.5%. After incubation in a water bath at 37 °C for 0, 30, 60, 90, and 120 min, 100 µL samples were transferred into EP tubes. Subsequently, 10 µL of internal standard working solution were added, followed by vortex mixing. Then, 500 µL of ethyl acetate were added, and the mixture was vortexed again before being centrifuged at 14,800 rpm at 4 °C for 10 min. A total of 400 µL of the supernatant were transferred into a new EP tube and placed in a vacuum concentrator (Bionoon-VAC2) (Bionoon Biotech, Shanghai, China) to dry for 1 h. The dried residue was reconstituted with 100 µL of mobile phase, vortex mixed thoroughly, and centrifuged again at 14,800 rpm at 4 °C for 10 min. A volume of 5 µL of the supernatant was then taken for LC-MS/MS analysis to determine the drug concentration. Additionally, a blank control group was established, in which PBS buffer was used in place of blank plasma in the incubation system.

[5] = Metabolic stability in monkey liver microsomes (MLM); format: in vitro ADME, crab-eating monkey
Experimental: as §1

[6] = Stability in human plasma; format: in vitro ADME; details: 37 °C, 453 μg/L
Experimental: as §2

[7] = Metabolic stability in rat liver microsomes (RLM); format: in vitro ADME, Sprague-Dawley rat
Experimental: as §1

MDA-MB-468 = test system: MDA-MB-468; set-up: method as in PMID 32690258; details: MDA-MB-468, in vitro; cited from earlier work
MDA-MB-468 xenograft = test system: MDA-MB-468 xenograft; set-up: method as in PMID 32690258; details: MDA-MB-468 xenograft nude mouse model, compared with positive control drug Vismodegib; cited from earlier work
[8] = Metabolic stability in human liver microsomes (HLM); format: in vitro ADME
Experimental: as §1

For O=C(Nc1ccc(Cl)c(-c2nnc3c(Cl)cccn23)c1)c1ccc(Cl)nc1Cl [TPB15], the “remaining proportion of TPB15 in liver microsomes” value (“remaining proportion of TPB15” below) ([1]; beagle dog microsomes, 90 min, 5 μM TPB15, 0.5 mg/mL, NADPH 1 mM) was 90.3 ± 3.54%, the microsomal CLint at 5 μM ([1]; beagle, dog, liver microsomes, DLM, 5 μM TPB15, 0.5 mg/mL microsomes, read-out: CLint (mL/min/mg), in vitro intrinsic clearance rate) was 0.0132 mL/min/mg and the half-life at 5 μM ([1]; beagle, dog, liver microsomes, DLM, 5 μM TPB15, 0.5 mg/mL microsomes, read-out: T1/2 (min), in vitro elimination half-life) was 630 min. For the same molecule, the fraction unbound at 3 h ([2]; human plasma, 4 to 16 μg/mL, read-out: average plasma protein binding rates, range over concentrations) was 0.179 to 0.185, the fraction unbound at 3 h, 4 μg/mL ([2]; human, plasma, 4 μg/mL TPB15, ultrafiltration, 37 °C 3 h) was 0.185 and the fraction unbound at 3 h, 8 μg/mL ([2]; human, plasma, 8 μg/mL TPB15, ultrafiltration, 37 °C 3 h) was 0.183. The fraction unbound at 3 h, 16 μg/mL ([2]; human, plasma, 16 μg/mL TPB15, ultrafiltration, 37 °C 3 h) was 0.179, the half-life in rats [3] was “relatively long half-life” and the “primary metabolic enzymes involved in TPB15 metabolism” value [4] was “CYP2C9 and CYP3A4”. For the same molecule, the “Remaining proportion of substrate TPB15 (%) KM mice” value (“Remaining proportion … (%) KM mice” below) (Stability in mice plasma; incubation 0 min) was 100.0 ± 0.7%, the “Remaining proportion … (%) KM mice” value (Stability in mice plasma; incubation 30 min) was 98.6 ± 0.9% and the “Remaining proportion … (%) KM mice” value (Stability in mice plasma; incubation 60 min) was 98.0 ±1.5%. For the same molecule, the “Remaining proportion … (%) KM mice” value (Stability in mice plasma; incubation 90 min) was 97.1 ± 0.7%, the “Remaining proportion … (%) KM mice” value (Stability in mice plasma; incubation 120 min) was 98.0 ± 1.2% and the “T1/2 (min), in vitro elimination half-life” value ([5]; MLM, 5 μM TPB15, 0.5 mg/mL microsomes) was 88.34 min. The “remaining proportion of TPB15” value ([5]; crab-eating monkey microsomes, 90 min, 5 μM TPB15, 0.5 mg/mL, NADPH 1 mM) was 48.0 ± 2.86%, the microsomal CLint at 5 μM ([5]; monkey liver microsomes, MLM, 5 μM TPB15, 0.5 mg/mL microsomes, read-out: CLint (mL/min/mg), in vitro intrinsic clearance rate) was 0.0941 mL/min/mg and the half-life at 5 μM ([5]; monkey liver microsomes, MLM, 5 μM TPB15, 0.5 mg/mL microsomes, read-out: T1/2 (min), in vitro elimination half-life) was 88 min. For the same molecule, the “Remaining proportion of substrate TPB15 (%) Human” value (“Remaining proportion … (%) Human” below) ([6]; incubation 0 min) was 100.0 ± 1.0%, the “Remaining proportion … (%) Human” value ([6]; incubation 30 min) was 97.3 ± 1.5% and the “Remaining proportion … (%) Human” value ([6]; incubation 60 min) was 97.7 ± 0.6%. For the same molecule, the “Remaining proportion … (%) Human” value ([6]; incubation 90 min) was 98.0 ± 1.0%, the “Remaining proportion … (%) Human” value ([6]; incubation 120 min) was 97.2 ± 1.1% and the “remaining proportion of TPB15” value ([7]; Sprague-Dawley rat microsomes, 90 min, 5 μM TPB15, 0.5 mg/mL, NADPH 1 mM) was 76.0 ± 0.89%. The microsomal CLint at 5 μM ([7]; Sprague-Dawley, rat, liver microsomes, RLM, 5 μM TPB15, 0.5 mg/mL microsomes, read-out: CLint (mL/min/mg), in vitro intrinsic clearance rate) was 0.0344 mL/min/mg, the “inhibition of proliferation of TNBC cell line” value (MDA-MB-468) was “significantly inhibits the proliferation” and the tumor inhibitory effect (MDA-MB-468 xenograft) was “robust tumor inhibitory effect, surpassing that of the positive control drug Vismodegib”. The “remaining proportion of TPB15” value ([8]; human microsomes, 90 min, 5 μM TPB15, 0.5 mg/mL, NADPH 1 mM) was 55.0 ± 2.81%, the microsomal CLint at 5 μM ([8]; human, liver microsomes, HLM, 5 μM TPB15, 0.5 mg/mL microsomes, read-out: CLint (mL/min/mg), in vitro intrinsic clearance rate) was 0.0805 mL/min/mg and the half-life at 5 μM ([8]; human, liver microsomes, HLM, 5 μM TPB15, 0.5 mg/mL microsomes, read-out: T1/2 (min), in vitro elimination half-life) was 103 min.
